Results from patent US9963474B2, “Mitochondria-targeted dicarbonyl sequestering compounds” (MEDICAL RESEARCH COUNCIL, priority 2013, dated 2018).

What was measured:
[1] = Competitive rate experiment for methylglyoxal monitored by 1H NMR; settings: 0.12 mM, DMSO, 25° C.
[2] = system: BAECs; experiment: Cell survival, MTS assay, BAECs; assay type: cell-based, bovine; settings: BAEC, 24 h
Procedure: (§1) (A, B) RLM respiring on glutamate/malate at 37° C. were incubated with various concentrations of MitoG for 7 min in an oxygen electrode to measure coupled respiration (A) before ADP was added to measure phosphorylating respiration (B). Data are the percentage of the respiration rates of untreated controls (dashed lines). (C and D) C2C12 cells (C) or BAECs [Bovine Aortic Endothelial Cells; Cell Applications Inc, San Diego, Calif.] (D) were incubated with MitoG for 24 h and cell survival was then determined using the MTS assay. Data are expressed as a percentage of the untreated controls (dashed line). (E-H) BAECs were incubated with MitoG for 2 h at 37° C. and the cellular oxygen consumption rate (OCR) after the sequential additions of oligomycin, FCCP and antimycin A/rotenone were then measured using a Seahorse XF24 analyser. (E) OCR due to ATP synthesis, (F) OCR due to proton leak, (G) reserve capacity and (H) non-mitochondrial oxygen consumption. Results are means±S.E. of three independent experiments. *, P<0.05 or **, P<0.01 relative to untreated controls.
To assess cell viability, C2C12 cells or BAECs were seeded at a density of 10,000 cells/well and 40,000 cells/well, respectively, in 96-well plates. […] After 2 h absorbance was read at 490 nm in a plate reader (SpectraMax Plus 384, Molecular Devices). […]

[3] = system: horse-radish peroxidase (HRP); experiment: Stability under oxidative conditions (HRP and hydrogen peroxide); assay type: physicochemical
Procedure: MitoG 100 μM was mixed with 0.07 U horse-radish peroxidase (HRP) in a 1 ml curvette containing 100 mM potassium phosphate buffer (pH 6.0) and 0.5% (w/v) hydrogen peroxide at room temperature. A reference curvette and a blank were similarly set up with DMSO in place of MitoG. Scanning UV/Vis spectra were then taken at 1 min, 5 min and 10 min after mixing using a spectrophotometer (Shimadzu UV-2501PC). Spectra of MitoG-containing mixtures were compared against the spectrum of the blank. To determine if any reaction observed could be prevented by the HRP inhibitor, NaN3 [58, 59] separate incubations were set up as above but containing 8 mg/ml NaN3 as well.
Oxidative degradation of o-phenylenediamine is known to result in the production of methylglyoxal and glyoxal. This oxidative degradation can lead to an overestimation of dicarbonyl levels in samples if o-phenylenediamine is used to try to quantify methylglyoxal and glyoxal levels in biological samples. To determine if MitoG could undergo similar oxidative degradation to methylglyoxal and glyoxal, MitoG was incubated with HRP and hydrogen peroxide in vitro. Scanning UV/Vis spectra of the reaction mixture were taken before and after the addition of HRP. HRP was used as a representative peroxidase that could catalyse an oxidative degradation in a cellular environment. […] These changes are prevented by the HRP inhibitor, NaN3.

[4] = system: BAECs; experiment: Cellular oxygen consumption rate, Seahorse XF24; assay type: cell-based, bovine
Procedure: as §1
The Seahorse XF24 extracellular flux analyser was used to assess cellular oxygen consumption rate (OCR). […] OCR was determined as follows: cells were washed twice in assay medium [4.15 g/l DMEM base, 1.85 g/l NaCl, ix glutamax (Invitrogen), 1 mM sodium pyruvate, 5 mM D-glucose, 15 mg/l phenol red, 20 mM HEPES and 0.4% (v/v) FCS, pH 7.4] and incubated in 630 μl assay medium for 1 h at 37° C. in air. After 20 min equilibration basal OCR was determined and after 3 h incubation with MitoG sequential injections of oligomycin (1 μg/ml), FCCP (2 μM) and rotenone/antimycin A (4 μg/ml and 5 μM, respectively). OCRs were normalized to cell number as measured using the sulphorhodamine B (SRB) assay as follows: cells were fixed (200 μl 5% trichloroacetic acid at 4° C. for 1 h), washes with water (×3), stained for 20 min with 50 μl 0.4% (w/v) SRB in 1% (v/v) acetic acid, washed (3×1% acetic acid) and the incorporated SRB dye solubilised in 100 μl 10 mM Tris base for 5 min. […]

Compound: Nc1ccc(OCCCCCC[P+](c2ccccc2)(c2ccccc2)c2ccccc2)cc1N [MitoG, (6-(3,4-Diaminophenoxy)hexyl)triphenylphosphonium chloride]
- reactivity relative to o-phenylenediamine for methylglyoxal [1]: ~1.8 ×
- concentration above which cell viability decreased [2]: > 50 µM
- degradation in the presence of HRP ([3]; 100 μM, 0.07 U HRP, 0.5% hydrogen peroxide, pH 6.0, room temperature): degrades in the presence of HRP
- oxidative degradation to methylglyoxal and glyoxal ([3]; HRP and hydrogen peroxide, product absorbs at 430 nm): does not undergo oxidative degradation to form methylglyoxal and glyoxal
- OCR due to proton leak ([4]; 2-5 μM): trend to an increased OCR due to proton leak
- respiratory reserve capacity ([4]; 2-5 μM): decreased respiratory reserve capacity
- OCR due to ATP synthesis ([4]; concentrations above 10 μM): slightly decreased
